Experiment [1] has as its target T1, Sentrin-specific protease 7 (Homo sapiens, UniProt Q9BQF6).
T1 sequence (Q9BQF6 whole entry): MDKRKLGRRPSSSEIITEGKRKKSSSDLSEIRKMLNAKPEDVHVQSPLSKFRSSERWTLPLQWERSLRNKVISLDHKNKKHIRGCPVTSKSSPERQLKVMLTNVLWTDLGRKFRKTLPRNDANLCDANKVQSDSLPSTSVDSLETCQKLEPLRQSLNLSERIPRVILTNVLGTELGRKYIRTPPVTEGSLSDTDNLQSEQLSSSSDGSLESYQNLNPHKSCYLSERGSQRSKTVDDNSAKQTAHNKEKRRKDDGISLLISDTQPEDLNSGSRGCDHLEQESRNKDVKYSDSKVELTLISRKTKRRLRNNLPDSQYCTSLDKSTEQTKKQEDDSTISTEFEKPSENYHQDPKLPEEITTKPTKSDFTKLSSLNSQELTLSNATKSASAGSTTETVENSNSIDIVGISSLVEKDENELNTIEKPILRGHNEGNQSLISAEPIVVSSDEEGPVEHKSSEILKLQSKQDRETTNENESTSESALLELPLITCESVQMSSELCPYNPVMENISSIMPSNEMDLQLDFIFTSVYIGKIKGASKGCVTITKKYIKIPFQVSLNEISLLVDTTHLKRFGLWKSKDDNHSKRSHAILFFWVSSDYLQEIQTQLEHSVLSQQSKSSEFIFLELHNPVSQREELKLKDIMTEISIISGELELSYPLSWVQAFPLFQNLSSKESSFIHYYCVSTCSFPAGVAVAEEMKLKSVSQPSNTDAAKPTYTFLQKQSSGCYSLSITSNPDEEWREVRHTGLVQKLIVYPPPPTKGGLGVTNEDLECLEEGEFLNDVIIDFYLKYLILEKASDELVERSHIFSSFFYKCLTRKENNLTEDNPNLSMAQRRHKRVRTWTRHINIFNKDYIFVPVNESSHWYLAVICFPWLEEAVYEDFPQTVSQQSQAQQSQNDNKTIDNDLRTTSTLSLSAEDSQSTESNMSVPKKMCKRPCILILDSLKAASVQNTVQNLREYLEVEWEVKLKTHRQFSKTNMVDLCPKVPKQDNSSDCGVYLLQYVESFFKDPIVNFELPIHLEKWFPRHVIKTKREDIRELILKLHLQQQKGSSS
Briefly: inhibition of human SENP7 cleavage activity – biochemical, luminescence, SAR follow-up (AID 504497). Format: functional.

The target in experiment [2] is Macrophage colony-stimulating factor 1 receptor (Homo sapiens, UniProt P07333). Format: functional.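 Also: value comes from the Navigating the Kinome screening panel, CSF1R member.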
The target of experiment [3] is Casein kinase II subunit alpha (Homo sapiens, UniProt P68400). Type of experiment: functional.
Experiment [4] addresses Casein kinase I isoform delta (Homo sapiens, UniProt P48730). Type of experiment: functional.
The target in experiment [5] is Cyclin-dependent kinase 2 (Homo sapiens, UniProt P24941). Type of experiment: functional.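 Also: CDK2 measured as one member of a broad kinome profiling panel.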
The target in experiment [6] is Maternal embryonic leucine zipper kinase (Homo sapiens, UniProt Q14680). Type of experiment: functional.
For experiment [7], the target named is Tyrosine-protein kinase FRK (Homo sapiens, UniProt P42685). Type of experiment: functional.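 Also: FRK tested as one member of a kinome panel.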
Experiment [8] has as its target Serine/threonine-protein kinase Nek4 (Homo sapiens, UniProt P51957). Type of experiment: functional.
In experiment [9] the target is Mitogen-activated protein kinase kinase kinase kinase 2 (Homo sapiens, UniProt Q12851). Type of experiment: functional.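 Also: measured as one member of a kinome-wide kinase panel, with MAP4K2 as the panel entry.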
Experiment [10] concerns the target RAC-alpha serine/threonine-protein kinase (Homo sapiens, UniProt P31749). Format: functional.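 Also: AKT1 affinity measured as one member of a kinome-wide kinase profiling panel.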
For experiment [11], the target named is Glycogen synthase kinase-3 beta (Homo sapiens, UniProt P49841). Type of experiment: functional.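 Also: value comes from a broad kinome profiling panel, with GSK3B as the panel member.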
Experiment [12] is described as follows: HEK-293T viability loss after treatment – luminescence, T-cell screen hits, cytotoxicity control for TCR NF-kB inhibitor project, dose response (AID 489026).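 Also: cells exposed to compound about 14 hours before the viability readout.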 Format: functional, cell-based.
The target of a further experiment is Beta-galactosidase (Escherichia coli, UniProt Q8VNN2). Type of experiment: functional.

Structures are written as SMILES. Activity calls are given as the source filed them.

Chain of RAC-alpha serine/threonine-protein kinase (P31749 whole entry): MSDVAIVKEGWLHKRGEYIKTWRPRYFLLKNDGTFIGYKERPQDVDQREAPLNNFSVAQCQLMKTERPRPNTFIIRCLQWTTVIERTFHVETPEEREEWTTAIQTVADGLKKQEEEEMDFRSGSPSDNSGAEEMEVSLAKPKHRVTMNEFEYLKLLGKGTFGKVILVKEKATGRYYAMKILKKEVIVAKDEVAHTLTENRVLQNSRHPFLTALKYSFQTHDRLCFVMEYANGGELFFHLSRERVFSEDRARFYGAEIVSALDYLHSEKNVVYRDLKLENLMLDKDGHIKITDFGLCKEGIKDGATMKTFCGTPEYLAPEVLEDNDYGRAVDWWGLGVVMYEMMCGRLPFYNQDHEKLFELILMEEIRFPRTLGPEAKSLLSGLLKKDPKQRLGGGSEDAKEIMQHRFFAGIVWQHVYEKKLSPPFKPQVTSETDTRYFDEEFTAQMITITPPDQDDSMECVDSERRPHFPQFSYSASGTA
Chain of Mitogen-activated protein kinase kinase kinase kinase 2 (Q12851 whole entry): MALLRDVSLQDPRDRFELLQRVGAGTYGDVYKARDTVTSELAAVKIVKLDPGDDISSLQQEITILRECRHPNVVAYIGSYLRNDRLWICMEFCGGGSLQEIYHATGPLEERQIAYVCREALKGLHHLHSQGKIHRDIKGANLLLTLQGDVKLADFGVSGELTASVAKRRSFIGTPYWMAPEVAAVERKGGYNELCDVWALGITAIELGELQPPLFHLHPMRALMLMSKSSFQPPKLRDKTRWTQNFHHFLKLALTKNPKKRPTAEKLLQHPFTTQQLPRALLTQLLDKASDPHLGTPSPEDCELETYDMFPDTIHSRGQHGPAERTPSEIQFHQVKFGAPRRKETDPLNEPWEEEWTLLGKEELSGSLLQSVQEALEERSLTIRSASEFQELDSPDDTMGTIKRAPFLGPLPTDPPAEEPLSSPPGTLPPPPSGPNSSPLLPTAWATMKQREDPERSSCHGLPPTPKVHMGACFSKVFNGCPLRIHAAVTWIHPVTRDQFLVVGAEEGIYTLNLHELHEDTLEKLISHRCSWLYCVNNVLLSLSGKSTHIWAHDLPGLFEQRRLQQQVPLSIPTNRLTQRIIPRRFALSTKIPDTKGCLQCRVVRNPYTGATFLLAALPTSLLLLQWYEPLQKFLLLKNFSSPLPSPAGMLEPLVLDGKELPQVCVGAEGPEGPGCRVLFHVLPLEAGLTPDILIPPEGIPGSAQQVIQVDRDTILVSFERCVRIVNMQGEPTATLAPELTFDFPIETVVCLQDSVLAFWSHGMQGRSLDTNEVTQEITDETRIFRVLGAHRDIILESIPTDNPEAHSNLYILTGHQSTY
Chain of Casein kinase I isoform delta (P48730 whole entry, canonical isoform): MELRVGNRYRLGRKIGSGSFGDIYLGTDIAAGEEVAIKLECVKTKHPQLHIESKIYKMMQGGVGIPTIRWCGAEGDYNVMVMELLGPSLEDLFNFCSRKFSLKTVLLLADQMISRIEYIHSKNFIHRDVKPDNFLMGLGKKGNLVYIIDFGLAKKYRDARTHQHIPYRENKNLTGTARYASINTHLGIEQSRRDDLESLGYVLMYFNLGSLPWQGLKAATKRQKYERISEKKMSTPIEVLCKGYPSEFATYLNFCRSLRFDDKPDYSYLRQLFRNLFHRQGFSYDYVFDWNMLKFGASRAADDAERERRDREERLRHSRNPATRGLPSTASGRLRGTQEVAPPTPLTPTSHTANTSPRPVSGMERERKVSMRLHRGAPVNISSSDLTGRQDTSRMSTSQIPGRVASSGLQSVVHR
Chain of Tyrosine-protein kinase FRK (P42685 whole entry): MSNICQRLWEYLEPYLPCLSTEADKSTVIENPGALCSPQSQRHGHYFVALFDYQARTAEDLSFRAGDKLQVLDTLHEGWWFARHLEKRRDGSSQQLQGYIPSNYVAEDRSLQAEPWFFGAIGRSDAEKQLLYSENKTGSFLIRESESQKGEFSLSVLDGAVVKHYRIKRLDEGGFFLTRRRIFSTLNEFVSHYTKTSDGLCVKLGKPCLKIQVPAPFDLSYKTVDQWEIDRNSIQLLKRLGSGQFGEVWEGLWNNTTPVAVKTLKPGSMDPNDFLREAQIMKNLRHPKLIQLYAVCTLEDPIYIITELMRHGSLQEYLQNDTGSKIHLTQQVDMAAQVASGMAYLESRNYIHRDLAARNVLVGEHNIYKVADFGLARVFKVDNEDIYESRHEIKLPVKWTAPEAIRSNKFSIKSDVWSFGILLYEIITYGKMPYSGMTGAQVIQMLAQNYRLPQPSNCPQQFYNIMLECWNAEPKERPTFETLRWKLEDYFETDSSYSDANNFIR
Chain of Casein kinase II subunit alpha (P68400 whole entry, canonical isoform): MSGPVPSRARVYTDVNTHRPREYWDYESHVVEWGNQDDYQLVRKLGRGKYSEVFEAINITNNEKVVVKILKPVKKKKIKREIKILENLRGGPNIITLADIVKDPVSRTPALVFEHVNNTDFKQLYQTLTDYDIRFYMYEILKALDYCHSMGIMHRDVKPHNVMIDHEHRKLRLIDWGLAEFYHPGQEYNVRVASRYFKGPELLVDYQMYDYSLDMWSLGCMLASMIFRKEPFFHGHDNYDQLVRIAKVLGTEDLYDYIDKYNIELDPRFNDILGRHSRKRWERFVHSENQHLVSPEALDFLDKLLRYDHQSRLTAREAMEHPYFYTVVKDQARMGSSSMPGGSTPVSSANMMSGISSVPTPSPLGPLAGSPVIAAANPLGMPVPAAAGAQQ
Chain of Macrophage colony-stimulating factor 1 receptor (P07333 whole entry): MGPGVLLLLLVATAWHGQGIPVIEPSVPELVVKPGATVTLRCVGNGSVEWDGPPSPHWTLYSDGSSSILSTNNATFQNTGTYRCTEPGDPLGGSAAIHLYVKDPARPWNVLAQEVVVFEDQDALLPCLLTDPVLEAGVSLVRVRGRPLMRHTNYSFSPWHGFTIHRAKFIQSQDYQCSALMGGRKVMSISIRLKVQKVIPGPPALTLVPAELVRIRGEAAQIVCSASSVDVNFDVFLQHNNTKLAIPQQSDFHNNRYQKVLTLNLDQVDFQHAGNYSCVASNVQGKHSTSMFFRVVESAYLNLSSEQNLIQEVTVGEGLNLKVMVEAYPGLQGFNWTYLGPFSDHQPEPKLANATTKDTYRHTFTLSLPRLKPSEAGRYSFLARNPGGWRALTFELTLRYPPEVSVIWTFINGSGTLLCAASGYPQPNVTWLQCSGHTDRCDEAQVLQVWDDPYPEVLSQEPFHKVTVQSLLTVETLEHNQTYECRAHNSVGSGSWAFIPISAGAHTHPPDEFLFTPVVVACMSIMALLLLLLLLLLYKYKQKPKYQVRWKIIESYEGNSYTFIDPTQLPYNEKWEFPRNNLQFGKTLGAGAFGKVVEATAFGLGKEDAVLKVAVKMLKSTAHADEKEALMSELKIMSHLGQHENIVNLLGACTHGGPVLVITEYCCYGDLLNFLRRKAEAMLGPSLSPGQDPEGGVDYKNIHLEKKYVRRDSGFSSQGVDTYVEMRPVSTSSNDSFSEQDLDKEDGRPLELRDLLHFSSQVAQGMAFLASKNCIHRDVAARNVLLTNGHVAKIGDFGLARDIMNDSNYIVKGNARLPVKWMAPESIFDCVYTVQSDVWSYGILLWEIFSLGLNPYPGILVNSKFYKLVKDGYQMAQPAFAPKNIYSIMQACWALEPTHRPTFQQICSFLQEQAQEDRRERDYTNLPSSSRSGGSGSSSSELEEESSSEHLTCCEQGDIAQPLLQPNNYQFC
Chain of Serine/threonine-protein kinase Nek4 (P51957 whole entry): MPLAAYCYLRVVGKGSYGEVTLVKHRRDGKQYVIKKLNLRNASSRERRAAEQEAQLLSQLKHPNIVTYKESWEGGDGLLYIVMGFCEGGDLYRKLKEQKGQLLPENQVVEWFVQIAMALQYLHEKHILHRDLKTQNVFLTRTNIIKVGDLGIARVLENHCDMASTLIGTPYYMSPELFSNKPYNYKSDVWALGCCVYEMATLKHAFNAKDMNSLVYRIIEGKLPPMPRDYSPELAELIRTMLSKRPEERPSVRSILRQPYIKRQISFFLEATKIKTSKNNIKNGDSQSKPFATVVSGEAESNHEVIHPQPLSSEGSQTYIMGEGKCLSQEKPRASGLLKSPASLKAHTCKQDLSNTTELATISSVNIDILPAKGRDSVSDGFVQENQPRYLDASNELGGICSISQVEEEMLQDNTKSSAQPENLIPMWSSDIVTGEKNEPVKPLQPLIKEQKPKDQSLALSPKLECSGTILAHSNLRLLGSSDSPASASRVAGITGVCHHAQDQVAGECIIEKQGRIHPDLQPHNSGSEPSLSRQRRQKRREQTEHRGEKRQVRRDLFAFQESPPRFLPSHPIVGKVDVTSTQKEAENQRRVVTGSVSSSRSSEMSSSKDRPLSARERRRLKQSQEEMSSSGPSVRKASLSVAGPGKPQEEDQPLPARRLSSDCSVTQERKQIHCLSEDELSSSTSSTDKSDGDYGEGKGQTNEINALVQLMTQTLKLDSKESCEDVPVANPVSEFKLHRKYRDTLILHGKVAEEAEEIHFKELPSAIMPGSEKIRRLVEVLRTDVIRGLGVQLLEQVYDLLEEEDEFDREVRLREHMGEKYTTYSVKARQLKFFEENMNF
Chain of Glycogen synthase kinase-3 beta (P49841 whole entry): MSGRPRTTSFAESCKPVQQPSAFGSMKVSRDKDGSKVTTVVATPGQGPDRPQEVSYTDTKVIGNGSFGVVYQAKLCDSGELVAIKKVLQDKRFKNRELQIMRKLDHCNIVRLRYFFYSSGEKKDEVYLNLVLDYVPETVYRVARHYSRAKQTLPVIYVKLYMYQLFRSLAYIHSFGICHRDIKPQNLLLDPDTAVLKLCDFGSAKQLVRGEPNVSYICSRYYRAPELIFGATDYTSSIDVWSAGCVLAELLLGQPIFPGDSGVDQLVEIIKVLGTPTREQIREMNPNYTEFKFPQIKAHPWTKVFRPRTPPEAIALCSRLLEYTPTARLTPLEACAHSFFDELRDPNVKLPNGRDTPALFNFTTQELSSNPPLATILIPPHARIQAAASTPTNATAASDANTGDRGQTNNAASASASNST

`Cc1cnc(NC(=O)c2sc3ccccc3c2Cl)s1`: the IC50 in [1] is 1.77 µM (active).
On to `O=C1NC(=S)SC1=C1C(=O)Nc2ccc(Br)cc21`, for which the Ki was > 2.51 µM (inactive) in experiment [2]; 0.631 µM (active) in experiment [3]; 5.01 µM (active) in experiment [4]; > 7.94 µM (inactive) in experiment [5]; 0.631 µM (active) in experiment [6]; > 2.51 µM (inactive) in experiment [7]. The Ki in experiment [8] is > 6.31 µM (inactive); in experiment [9] it was > 6.31 µM (inactive); in [10], > 7.94 µM (inactive); in [11], 0.501 µM (active).
For the compound `Cc1ccc(Nc2cc(C)nn2-c2nc(C)cc(O)n2)cc1`, in experiment [12], the IC50 is > 80 µM (inactive). The EC50 at Beta-galactosidase is > 31.5 µM (inactive).

These data come from ChEMBL document CHEMBL1201862, “PubChem BioAssay data set” (2004).
